{"source": "paper PMC4579270", "about": "“Identification and Characterization of an Irreversible Inhibitor of CDK2” (Chemistry & Biology, 2015)", "key": {"[1]": {"tested_on": "phosphorylation of Rb at Thr821 in SKUT-1B cells", "assay": "Inhibition of Rb phosphorylation in cells (western blot)", "format": "cell-based", "conditions": "for inhibition at 50 µM: Homo sapiens, Skut1B, 1 hr exposure", "protocol": "The cellular potency of NU6300 was examined by measuring the inhibition of Rb phosphorylation following exposure of SKUT-1B cells to the inhibitor for 1 hr. Pre-incubation with 50 μM NU6300 inhibited phosphorylation of Rb at […], a known CDK2 phosphorylation site, by 43%. […] This difference just reached statistical significance (p = 0.04). […] Representative of three different experiments. […] Protein expression levels of phospho-Rb ([…]) were normalized to the levels of total Rb in respective samples using densitometry. Relative protein expression levels are presented as percentage of inhibition of phosphorylation of Rb ([…]) compared with the control cells for each time point. Error bars represent the mean value and SD from three independent experiments. Statistical analysis was performed using the unpaired Student's t test, one-tailed. Western blot analysis was carried out as described previously ([Thomas et al., 2011]) using rabbit anti-[…] phospho-Rb antibody (Invitrogen) or mouse antihuman Rb antibody (BD Pharmingen) to detect phosphorylated and total retinoblastoma protein, respectively. Sample preparation is described in Supplemental Experimental Procedures. page 14: formate) before cryo-coolling. Data processing was carried out using programs of the CCP4 suite (CCP4, 1994). The structure of NU6300 bound to CDK2/cyclin A was solved by molecular replacement using Phaser (McCoy et al., 2007), using as the search model a high-resolution structure of a recruitment peptide bound to CDK2/cyclin A ((Cheng et al., 2006) PDB code 2CCH). A single clear solution was found with an inhibitor bound to each of the two copies of the binary complex in the asymmetric unit. This solution was then subjected to rigid body refinement in REFMAC (Murshudov et al., 1997), to reveal unambiguous electron density in the CDK2 ATP-binding site, consistent with the expected shape of the inhibitor. A model of NU6300 was created using Coot (Emsley et al., 2010). The inhibitor atoms were kept in all subsequent models during refinement carried out by additional rounds of manual rebuilding in Coot and restrained refinement in REFMAC5, including TLS refinement. Towards the end of refinement, waters were added using the Coot water picking utility and manually verified. Western blotting SKUT-1B cells (ATCC, Manassas, USA) were grown in MEM medium supplemented with non-essential amino acids, L-Glutamine, sodium pyruvate and 10% (v/v) foetal calf serum (Sigma, UK). […] Cells were harvested at different time points after the washout and lysed by adding PhosphoSafe extraction reagent (Merck, UK) containing protease inhibitor cocktail (Roche, UK) at the manufacturer's recommended dilution. The harvested cell suspension was placed in an eppendorf tube on ice, centrifuged at 13,000x g for 5 min, and the supernatant (cell lysate) removed for analysis. Subsequent western blot analysis was carried out as described in (Thomas et al., 2011) using rabbit anti-[…] phospho-Rb antibody (Invitrogen, Paisley, UK Cat No. 44-[…]) or mouse anti-human Rb antibody (BD Pharmingen, Oxford, UK Cat No. 554136) to detect phosphorylated and total retinoblastoma protein, respectively."}, "[2]": {"tested_on": "human MCF-7 breast carcinoma cells", "design": "method as in Davies et al., 2002", "conditions": "ref Davies et al., 2002; cited from earlier work"}}, "note": "Like-named read-outs stand apart in the source and are kept apart here.", "data": [{"smiles": "NS(=O)(=O)c1ccc(Nc2nc(OCC3CCCCC3)c3nc[nH]c3n2)cc1", "note": "[NU6102, 4-((6-(Cyclohexylmethoxy)-9H-purin-2-yl)amino)benzenesulfonamide]", "values": [{"measurement": "inhibitory activity lost after washout", "setting": "[1]; 50 μM, 1 hr of washout", "result": "just over half"}, {"measurement": "inhibition at 50 µM", "setting": "[1]; before washout, read-out: inhibition of phosphorylation of Rb at Thr821", "result": 85, "unit": "%"}, {"measurement": "inhibition at 50 µM", "setting": "[1]; then 1-hr washout in drug-free media, read-out: inhibition of phosphorylation of Rb at Thr821 after washout", "result": 40, "unit": "%"}, {"measurement": "GI50", "setting": "[2]", "result": 8, "unit": "µM"}]}]}
